This is an account of results in BindingDB's records for PubMed 1706716 (Duke University, 1991).

In assay [1] the target is T1, Alpha-1B adrenergic receptor (Rattus norvegicus, UniProt P15823).
T1 sequence (P15823 whole entry): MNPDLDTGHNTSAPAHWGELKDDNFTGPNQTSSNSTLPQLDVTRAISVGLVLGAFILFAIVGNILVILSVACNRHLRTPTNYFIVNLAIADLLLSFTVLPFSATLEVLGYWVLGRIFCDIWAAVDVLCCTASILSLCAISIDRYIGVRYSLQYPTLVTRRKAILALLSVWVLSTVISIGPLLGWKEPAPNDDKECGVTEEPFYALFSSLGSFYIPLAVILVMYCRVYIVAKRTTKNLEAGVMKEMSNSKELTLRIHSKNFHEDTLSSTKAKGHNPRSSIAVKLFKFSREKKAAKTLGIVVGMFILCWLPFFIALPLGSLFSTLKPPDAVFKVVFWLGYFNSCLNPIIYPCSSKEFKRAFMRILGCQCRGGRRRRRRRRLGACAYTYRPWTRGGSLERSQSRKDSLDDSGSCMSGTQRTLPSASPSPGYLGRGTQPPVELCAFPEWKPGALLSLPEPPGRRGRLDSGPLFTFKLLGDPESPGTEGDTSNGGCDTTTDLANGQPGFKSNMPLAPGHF

In assay [2] the target is T2, Alpha-1A adrenergic receptor (Rattus norvegicus, UniProt P43140).
T2 sequence (P43140 whole entry): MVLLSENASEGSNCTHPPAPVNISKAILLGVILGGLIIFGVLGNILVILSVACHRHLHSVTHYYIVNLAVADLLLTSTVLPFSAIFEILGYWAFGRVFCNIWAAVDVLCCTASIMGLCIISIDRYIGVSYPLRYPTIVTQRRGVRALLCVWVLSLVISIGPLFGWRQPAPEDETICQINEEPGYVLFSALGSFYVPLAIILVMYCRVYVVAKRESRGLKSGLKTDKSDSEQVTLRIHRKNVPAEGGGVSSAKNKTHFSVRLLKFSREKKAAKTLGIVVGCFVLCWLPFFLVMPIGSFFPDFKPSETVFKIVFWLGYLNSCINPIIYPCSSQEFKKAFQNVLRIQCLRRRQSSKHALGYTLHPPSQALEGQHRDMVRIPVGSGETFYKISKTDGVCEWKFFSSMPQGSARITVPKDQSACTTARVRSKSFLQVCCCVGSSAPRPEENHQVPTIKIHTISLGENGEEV

Assay [3] concerns the target T3, Alpha-1A adrenergic receptor (Bos taurus, UniProt P18130).
T3 sequence (P18130 whole entry): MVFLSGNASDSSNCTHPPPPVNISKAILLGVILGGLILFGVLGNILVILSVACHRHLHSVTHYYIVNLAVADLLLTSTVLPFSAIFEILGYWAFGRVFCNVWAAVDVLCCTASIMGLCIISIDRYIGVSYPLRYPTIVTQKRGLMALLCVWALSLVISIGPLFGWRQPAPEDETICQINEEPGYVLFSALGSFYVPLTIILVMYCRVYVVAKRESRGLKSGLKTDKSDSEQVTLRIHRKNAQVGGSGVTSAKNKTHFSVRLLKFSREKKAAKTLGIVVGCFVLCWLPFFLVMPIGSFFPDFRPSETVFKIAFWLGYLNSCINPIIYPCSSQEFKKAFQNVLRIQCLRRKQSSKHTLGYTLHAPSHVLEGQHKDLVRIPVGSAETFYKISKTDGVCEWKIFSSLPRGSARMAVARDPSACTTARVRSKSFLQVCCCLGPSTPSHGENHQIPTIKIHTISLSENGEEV

For the compound `COc1cccc(OC)c1OCCNCC1Oc2ccccc2OC1c1ccccc1` (stereo not drawn) [NSC_185453], the Ki in assay [1] came out at 28.6 nM; in assay [2], 2.1 nM; in assay [3], 0.68 nM.

Compound `Cc1ccc(N(CC2=NCCN2)c2cccc(O)c2)cc1` [SMR000059054] yielded a Ki in assay [3] of 15.3 nM.

For `COC(=O)[C@@H]1[C@H]2C[C@H]3c4[nH]c5ccccc5c4CCN3C[C@@H]2CC[C@@H]1O` [yohimbic acid methyl ester], in assay [1], the Ki came out at 517 nM.

In the case of `Cc1cc(C(C)(C)C)c(O)c(C)c1CC1=NCCN1` [SMR000059324], in assay [3], the affinity, expressed as Ki, was 114 nM.

In turn, `NCC(O)c1ccc(O)c(O)c1` (stereo not drawn) [Noradrenaline,(+)] gave a Ki in assay [3] of 9730 nM.

`COc1ccc(OC)c(C(O)C(C)N)c1` (stereo not drawn): the Ki in assay [1] was 1610 nM; in assay [2], above 10000 nM; in assay [3], above 10000 nM.

For the compound `O=C(NC1CCN(CCc2c[nH]c3ccccc23)CC1)c1ccccc1` [N-{1-[2-(1H-Indol-3-yl)-ethyl]-piperidin-4-yl}-benzamide(indoramin)], the Ki in assay [1] came to 226 nM; in assay [2], 611 nM.

Take `CNC[C@H](O)c1cccc(O)c1` [PHENYLEPHRINE]: in assay [3], the Ki was above 10000 nM.
